Measured values as given in EPA's ToxRefDB 2.

Legend:
[1] = system: rat; conditions: Multigenerational reproductive toxicity study; sprague dawley; Oral; Feed; dose end: 2 generation; group: offspring; systemic / in life observation / body weight / offspring (pup) weight
[2] = system: mouse; conditions: Carcinogenicity, cd1, Oral, Feed, dose end: 104 week, group: systemic
[3] = system: rat; conditions: Prenatal developmental toxicity study, sprague dawley, Oral, Gavage/Intubation, dose end: 15 GD
[4] = system: rat; conditions: Subchronic dermal toxicity, sprague dawley, Topical, dose end: 91 day, group: systemic, systemic / in life observation / clinical signs / erythema
[5] = system: rabbit; conditions: Prenatal developmental toxicity study; new zealand white; Oral; Gavage/Intubation; dose end: 18 GD; group: maternal; systemic / in life observation / clinical signs / general motor disturbances + systemic / in life observation / clinical signs / partial …
[6] = system: rat; conditions: Prenatal developmental toxicity study, sprague dawley, Oral, Gavage/Intubation, dose end: 15 GD; remark: listed apart in the source
[7] = systemic / in life observation / body weight / body weight gain + systemic / pathology microscopic / intestine small / hyperplasia + …
[8] = group: developmental, developmental / developmental malformation / bone / absent + developmental / developmental malformation / bone / fused + developmental / …
[9] = group: maternal, systemic / in life observation / clinical signs / alopecia + systemic / in life observation / clinical signs / defecation (diarrhea) + …
[10] = group: developmental, developmental / developmental malformation / bone / bent + developmental / developmental malformation / bone / unossified + developmental / …
[11] = group: maternal, systemic / in life observation / body weight / body weight + systemic / in life observation / clinical signs / reduced activity + systemic…

N#CSCSc1nc2ccccc2s1 [2-(Thiocyanomethylthio)benzothiazole]
LEL [1]: 38.4 mg/kg/day | LOAEL [1]: 38.4 mg/kg/day | NEL [1]: 9.6 mg/kg/day | NOAEL [1]: 9.6 mg/kg/day | LOAEL ([2]; systemic / in life observation / body weight / body weight gain + systemic / pathology microscopic / intestine small / hyperplasia): 148 mg/kg/day | LEL [2, 7]: 148 mg/kg/day | NEL [2, 7]: 49.3 mg/kg/day | NOAEL [2, 7]: 49.3 mg/kg/day | LEL [3, 8]: 126 mg/kg/day | LOAEL [3, 8]: 126 mg/kg/day | NEL [3, 8]: 76.5 mg/kg/day | NOAEL [3, 8]: 76.5 mg/kg/day | LEL [3, 9]: 76.5 mg/kg/day | LOAEL [3, 9]: 76.5 mg/kg/day | NEL [3, 9]: 25.1 mg/kg/day | NOAEL [3, 9]: 25.1 mg/kg/day

N#CN=C([S-])[S-].[Na+].[Na+] [Disodium cyanodithioimidocarbonate]
LEL [4]: 25 mg/kg/day | LOAEL [4]: 25 mg/kg/day | NEL [4]: < 25 mg/kg/day | NOAEL [4]: < 25 mg/kg/day | LEL [5]: 10 mg/kg/day | LOAEL [5]: 10 mg/kg/day | NEL [5]: 3 mg/kg/day | NOAEL [5]: 3 mg/kg/day | LOAEL ([6]; group: developmental, developmental / developmental malformation / bone / bent + developmental / developmental malformation / bone / unossified): 18 mg/kg/day | LEL [6, 10]: 18 mg/kg/day | NEL [6, 10]: 6 mg/kg/day | NOAEL [6, 10]: 6 mg/kg/day | LOAEL ([6]; group: maternal, systemic / in life observation / body weight / body weight + systemic / in life observation / clinical signs / reduced activity): 18 mg/kg/day | LEL [6, 11]: 18 mg/kg/day | NEL [6, 11]: 6 mg/kg/day | NOAEL [6, 11]: 6 mg/kg/day
